Holding throughout (type): biochemical
The target of one test is T1, DPP4 (Homo sapiens, UniProt P27487).
T1 construct: DPP4 was purified from human seminal plasma; from tissue; host or cells: human seminal plasma
Put plainly: DPP4 IC50 measurement (Ala-Pro-pNA). As to conditions: for IC50: Ala-Pro-pNA 25 μM, pH 7.4; for Selectivity index DPP4: IC50(DPP4)/IC50(FAP). From the text: (§1) Used Enzymes in these Assays: • A gateway-entry clone for human FAP was purchased from Dharmacon (Accession number DQ891423) and the human secretion signal was replaced with the HoneyBee mellitin secretion signal. For transfection and expression of FAP in Sf9 insect cells the C-terminal BaculoDirect kit from LifeTechnologies was used. The enzyme was purified from the supernatant of the insect cells using immobilized Ni-chelating chromatography (GE healthcare, Diegem, Belgium), followed by anion-exchange chromatography using a 1 mL HiTrap Q and size exclusion chromatography using the Superdex 200 column (GE healthcare, Diegem, Belgium). • Human recombinant PREP was expressed in BL21(DE3) cells and purified using immobilized Co-chelating chromatography (GE healthcare), followed by anion-exchange chromatography on a 1 ml Mono Q column (GE healthcare). • DPP4 was purified from human seminal plasma. • Gateway-entry clones for human DPP8 and DPP9 were purchased from Dharmacon (Accession numbers DQ891733 and DQ892325 respectively). For transfection and expression of DPP8 and DPP9 in Sf9 insect cells the N-terminal BaculoDirect kit from LifeTechnologies was used. The enzymes were purified using immobilized Ni-chelating chromatography (GE healthcare, Diegem, Belgium), followed by anion-exchange chromatography using a 1 mL Mono Q (GE healthcare, Diegem, Belgium). • Recombinant human DPP2 was purchased from R&D.
(§2) Eight concentrations of inhibitors/probe were tested. The final DMSO concentration was kept constant during the experiment to exclude any effects. Inhibitors were pre-incubated with the enzyme for 15 minutes at 37° C., afterwards the substrate was added and the velocities of AMC release were measured kinetically at λex=380 nm, λem=465 nm for at least 10 minutes at 37° C. […] Eight concentrations of inhibitors were tested. The final DMSO concentration in kept constant during the experiment to exclude any effects. Inhibitors were pre-incubated with the enzyme for 15 minutes at 37° C., afterwards the substrate was added and the velocities of AMC release were measured kinetically at λex=380 nm, λem=465 nm for at least 10 minutes at 37° C. […] At least eight different inhibitor concentrations were used. The final DMSO concentration is kept constant during the experiment to exclude any effects. Inhibitors were pre-incubated with the enzyme for 15 minutes at 37° C., afterwards the substrate was added and the velocities of pNA release were measured kinetically at 405 nm for at least 10 minutes at 37° C. Measurements were done on the Infinite 200 (Tecan Group Ltd.) and the Magellan software was used to process the data. • For DPP2: Initial velocity measurements were carried out. Lys-Ala-pNA was used as the substrate at a concentration of 1 mM at pH 5.5 (100 mM NaAc, 10 mM EDTA, 14 μg/mL aprotinin). Inhibitors were tested at one concentration, 5 μM, being the final concentration in the well. Inhibitors were pre-incubated with the enzyme for 15 minutes at 37° C., afterwards the substrate was added and the velocities of pNA release were measured kinetically at 405 nm for at least 10 minutes at 37° C. Measurements were done on the Infinite 200 (Tecan Group Ltd.) and the Magellan software was used to process the data.

The target of a further test is T2, Human recombinant PREP (Homo sapiens, UniProt P48147).
T2 construct: made in house; host or cells: E. coli BL21(DE3)
T2 sequence (P48147 1-710): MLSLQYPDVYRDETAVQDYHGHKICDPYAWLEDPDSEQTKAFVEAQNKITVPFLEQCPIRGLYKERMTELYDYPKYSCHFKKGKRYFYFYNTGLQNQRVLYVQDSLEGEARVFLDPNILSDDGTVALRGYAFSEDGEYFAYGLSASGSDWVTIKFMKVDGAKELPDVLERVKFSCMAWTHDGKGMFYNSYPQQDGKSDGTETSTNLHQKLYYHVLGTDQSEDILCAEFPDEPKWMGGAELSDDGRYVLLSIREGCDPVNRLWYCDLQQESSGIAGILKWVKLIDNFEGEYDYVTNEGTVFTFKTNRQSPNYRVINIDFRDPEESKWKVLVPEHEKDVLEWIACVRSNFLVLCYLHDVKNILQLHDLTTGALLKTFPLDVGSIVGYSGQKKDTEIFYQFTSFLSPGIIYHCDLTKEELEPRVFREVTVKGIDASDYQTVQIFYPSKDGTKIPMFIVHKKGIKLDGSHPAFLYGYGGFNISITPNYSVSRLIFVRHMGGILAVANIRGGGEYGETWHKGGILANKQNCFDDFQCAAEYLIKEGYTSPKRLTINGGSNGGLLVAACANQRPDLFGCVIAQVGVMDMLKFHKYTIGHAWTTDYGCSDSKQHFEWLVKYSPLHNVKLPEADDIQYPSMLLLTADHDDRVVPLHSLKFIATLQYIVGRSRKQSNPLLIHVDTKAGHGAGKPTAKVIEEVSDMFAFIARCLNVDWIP
Put plainly: PREP IC50 measurement (N-succinyl-Gly-Pro-AMC). The conditions noted are these: for Selectivity index PREP: IC50(PREP)/IC50(FAP); for IC50: N-succinyl-Gly-Pro-AMC 250 μM, pH 7.4.
Text: as §1, §2

The target in a further test is T3, human DPP8 (Homo sapiens, UniProt Q6V1X1).
T3 construct: made in house; host or cells: Sf9 insect cells (baculovirus)
Description: DPP8 IC50 measurement (Ala-Pro-pNA). As to conditions: for IC50: Ala-Pro-pNA 300 μM, pH 7.4, read-out: DPP8 IC50; for Selectivity index DPP8: IC50(DPP8)/IC50(FAP).
Text: as §1, §2

A further test deals with T4, human DPP9 (Homo sapiens, UniProt Q86TI2).
T4 construct: made in house; host or cells: Sf9 insect cells (baculovirus)
Put plainly: DPP9 IC50 measurement (Ala-Pro-pNA). As to conditions: for IC50: Ala-Pro-pNA 150 μM, pH 7.4; for Selectivity index DPP9: IC50(DPP9)/IC50(FAP).
Text: as §1, §2

For a further test, the target named is T5, human FAP (Homo sapiens, UniProt Q12884).
T5 construct: the human secretion signal was replaced with the HoneyBee mellitin secretion signal; honeybee melittin secretion signal (replaces the native signal) (N); made in house; host or cells: Sf9 insect cells (baculovirus), purified from supernatant
T5 sequence (Q12884 26-760 limits assumed): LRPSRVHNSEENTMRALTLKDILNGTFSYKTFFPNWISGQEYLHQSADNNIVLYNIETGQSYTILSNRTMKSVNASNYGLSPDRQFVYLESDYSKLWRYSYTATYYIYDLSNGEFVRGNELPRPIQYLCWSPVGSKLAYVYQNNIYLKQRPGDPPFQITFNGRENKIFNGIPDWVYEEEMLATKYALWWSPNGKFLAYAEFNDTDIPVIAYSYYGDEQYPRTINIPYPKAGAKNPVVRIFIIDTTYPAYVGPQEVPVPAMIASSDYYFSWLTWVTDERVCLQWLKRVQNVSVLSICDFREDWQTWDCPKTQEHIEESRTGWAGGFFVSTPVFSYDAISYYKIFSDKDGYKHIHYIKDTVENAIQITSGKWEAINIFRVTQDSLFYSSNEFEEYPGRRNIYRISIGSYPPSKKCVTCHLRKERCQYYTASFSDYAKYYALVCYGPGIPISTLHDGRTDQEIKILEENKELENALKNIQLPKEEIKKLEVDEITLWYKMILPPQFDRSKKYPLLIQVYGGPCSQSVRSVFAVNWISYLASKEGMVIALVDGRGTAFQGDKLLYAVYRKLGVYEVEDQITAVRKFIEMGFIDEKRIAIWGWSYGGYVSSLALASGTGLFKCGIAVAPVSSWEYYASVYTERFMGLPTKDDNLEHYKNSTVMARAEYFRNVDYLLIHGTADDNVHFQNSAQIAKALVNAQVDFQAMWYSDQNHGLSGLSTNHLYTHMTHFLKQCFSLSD
Description: FAP IC50 measurement (Z-Gly-Pro-AMC). The conditions noted are these: Z-Gly-Pro-AMC 50 μM, pH 8, 15 min pre-incubation.
Text: as §1, §2

Molecules are shown by their SMILES.

T4 sequence (Q86TI2 whole entry): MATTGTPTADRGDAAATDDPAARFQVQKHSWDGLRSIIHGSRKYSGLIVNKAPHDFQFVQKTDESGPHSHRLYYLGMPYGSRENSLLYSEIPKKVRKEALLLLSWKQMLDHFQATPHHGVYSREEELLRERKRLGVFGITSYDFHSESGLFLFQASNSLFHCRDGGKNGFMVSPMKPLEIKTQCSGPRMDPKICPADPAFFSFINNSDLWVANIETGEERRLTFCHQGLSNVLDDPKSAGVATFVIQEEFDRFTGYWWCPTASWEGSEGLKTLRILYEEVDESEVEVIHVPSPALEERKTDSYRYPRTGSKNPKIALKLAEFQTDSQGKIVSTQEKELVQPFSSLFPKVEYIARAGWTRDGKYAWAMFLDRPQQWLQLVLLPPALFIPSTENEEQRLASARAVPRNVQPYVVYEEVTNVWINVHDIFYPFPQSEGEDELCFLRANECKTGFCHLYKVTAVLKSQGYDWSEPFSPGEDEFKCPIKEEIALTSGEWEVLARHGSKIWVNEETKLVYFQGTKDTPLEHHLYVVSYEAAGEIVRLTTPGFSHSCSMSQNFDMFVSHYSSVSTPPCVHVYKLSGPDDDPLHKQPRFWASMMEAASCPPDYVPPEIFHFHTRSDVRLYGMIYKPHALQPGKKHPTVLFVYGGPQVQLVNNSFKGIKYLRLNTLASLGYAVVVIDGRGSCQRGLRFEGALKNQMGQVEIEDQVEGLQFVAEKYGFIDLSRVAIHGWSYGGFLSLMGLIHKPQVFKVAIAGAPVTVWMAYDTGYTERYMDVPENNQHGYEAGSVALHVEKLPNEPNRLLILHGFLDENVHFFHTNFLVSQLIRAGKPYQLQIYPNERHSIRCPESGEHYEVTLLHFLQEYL
T1 sequence (P27487 whole entry): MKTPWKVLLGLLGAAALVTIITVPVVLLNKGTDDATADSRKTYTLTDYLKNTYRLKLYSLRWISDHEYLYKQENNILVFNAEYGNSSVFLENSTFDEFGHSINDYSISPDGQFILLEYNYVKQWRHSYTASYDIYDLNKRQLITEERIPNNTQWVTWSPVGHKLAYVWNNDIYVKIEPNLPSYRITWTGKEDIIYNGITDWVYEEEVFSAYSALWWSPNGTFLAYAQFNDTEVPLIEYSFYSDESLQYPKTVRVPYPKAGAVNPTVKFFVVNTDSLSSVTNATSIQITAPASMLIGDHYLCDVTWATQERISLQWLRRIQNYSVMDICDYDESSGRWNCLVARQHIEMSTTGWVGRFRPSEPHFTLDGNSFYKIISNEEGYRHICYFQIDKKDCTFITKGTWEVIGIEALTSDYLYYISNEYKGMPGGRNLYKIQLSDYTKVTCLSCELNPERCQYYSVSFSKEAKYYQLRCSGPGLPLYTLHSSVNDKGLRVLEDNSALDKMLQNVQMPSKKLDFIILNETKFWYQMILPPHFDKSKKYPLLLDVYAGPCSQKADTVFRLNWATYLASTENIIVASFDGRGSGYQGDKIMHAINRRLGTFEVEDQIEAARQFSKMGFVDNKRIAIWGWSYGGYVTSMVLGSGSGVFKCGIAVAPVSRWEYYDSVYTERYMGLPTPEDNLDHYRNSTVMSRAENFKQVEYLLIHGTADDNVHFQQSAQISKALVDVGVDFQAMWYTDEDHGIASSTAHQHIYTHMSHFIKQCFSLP
T3 sequence (Q6V1X1 whole entry): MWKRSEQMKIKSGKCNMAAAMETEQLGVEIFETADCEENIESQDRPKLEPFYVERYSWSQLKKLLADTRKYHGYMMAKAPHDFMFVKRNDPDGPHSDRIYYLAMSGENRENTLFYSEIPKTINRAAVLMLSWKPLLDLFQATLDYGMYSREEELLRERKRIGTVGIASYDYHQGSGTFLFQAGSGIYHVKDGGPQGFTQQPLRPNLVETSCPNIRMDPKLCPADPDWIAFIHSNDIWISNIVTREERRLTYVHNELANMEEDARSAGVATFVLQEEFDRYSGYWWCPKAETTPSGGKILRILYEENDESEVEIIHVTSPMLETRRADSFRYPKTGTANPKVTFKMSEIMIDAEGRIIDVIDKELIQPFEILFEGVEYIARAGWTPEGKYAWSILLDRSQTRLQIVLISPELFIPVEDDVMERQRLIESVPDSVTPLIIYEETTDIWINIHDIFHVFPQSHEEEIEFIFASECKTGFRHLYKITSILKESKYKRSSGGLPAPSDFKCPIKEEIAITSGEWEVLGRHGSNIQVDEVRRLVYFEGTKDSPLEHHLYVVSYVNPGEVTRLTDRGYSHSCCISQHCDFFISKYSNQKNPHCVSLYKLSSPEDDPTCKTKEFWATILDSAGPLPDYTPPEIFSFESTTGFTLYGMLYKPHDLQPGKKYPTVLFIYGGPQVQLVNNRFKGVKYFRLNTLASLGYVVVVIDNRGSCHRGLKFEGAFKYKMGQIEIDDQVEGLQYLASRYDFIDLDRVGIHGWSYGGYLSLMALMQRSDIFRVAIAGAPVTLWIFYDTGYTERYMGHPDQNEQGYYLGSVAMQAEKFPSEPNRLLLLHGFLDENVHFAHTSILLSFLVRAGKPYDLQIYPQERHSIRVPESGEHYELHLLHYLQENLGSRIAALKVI

Turning to `CC(C)(C)OC(=O)N1CC[N+](C)(CCCOc2ccc3nccc(C(=O)NCC(=O)N4CC(F)(F)C[C@H]4C#N)c3c2)CC1` [Compound 11, (S)-4-(tert-butoxycarbonyl)-1-(3-((4-((2-(2-cyano-4,4-difluoropyrrolidin-1-yl)-2-oxoethyl)carbamoyl)quinolin-6-yl)oxy)propyl)-1-methylpiperazin-1-ium iodide], at DPP4, the IC50 (usually the concentration that gives 50% inhibition) is > 10 µM and the “Selectivity index DPP4” value was >22000. In addition, at Human recombinant PREP, the “Selectivity index PREP” value is >22000 and the IC50 was > 10 µM. Besides, at human DPP8, the IC50 was > 1 µM and the “Selectivity index DPP8” value is on record as >2200. Further, on human DPP9, the half-maximal inhibitory concentration (IC50) turned out to be 0.62 ± 0.08 µM and the “Selectivity index DPP9” value is >2200. The compound also returned an IC50 against human FAP of 0.00044 ± 5e-05 µM.

Turning to `C[N+]1(CCCOc2ccc3nccc(C(=O)NCC(=O)N4CC(F)(F)C[C@H]4C#N)c3c2)CCN(C(=O)c2ccc(F)cc2)CC1` [Compound 14, (S)-1-(3-((4-((2-(2-cyano-4,4-difluoropyrrolidin-1-yl)-2-oxoethyl)carbamoyl)quinolin-6-yl)oxy)propyl)-4-(4-fluorobenzoyl)-1-methylpiperazin-1-ium], on DPP4, the IC50 was > 10 µM and the “Selectivity index DPP4” value is >10000. At Human recombinant PREP, the “Selectivity index PREP” value is given as >10000 and the IC50 is > 10 µM. Besides, on human DPP8, the IC50 was > 10 µM and the “Selectivity index DPP8” value was >10000. For the same compound, at human DPP9, the 50% inhibitory concentration (IC50) was > 1 µM and the “Selectivity index DPP9” value is on record as >1000. For the same compound, 0.00095 ± 0.0001 µM corresponded to half-maximal inhibition against human FAP (IC50).

Take `C[N+](C)(CF)CCCOc1ccc2nccc(C(=O)NCC(=O)N3CC(F)(F)C[C@H]3C#N)c2c1.Cc1ccc(S(=O)(=O)[O-])cc1` [Compound 4a, (S)-3-((4-((2-(2-cyano-4,4-difluoropyrrolidin-1-yl)-2-oxoethyl)carbamoyl)quinoline-6-yl)oxy)-N-(fluoromethyl)-N,N-dimethylpropan-1-aminium benzenesulfonate]: the IC50 is > 10 µM against DPP4; > 10 µM on Human recombinant PREP; > 10 µM on human DPP8; > 10 µM against human DPP9; 0.00032 ± 2e-05 µM at human FAP. Besides, the “Selectivity index DPP4” value on DPP4 was >31000. Further, on Human recombinant PREP, the “Selectivity index PREP” value is recorded as >31000. Besides, on human DPP8, the “Selectivity index DPP8” value is >31000. Moreover, the “Selectivity index DPP9” value on human DPP9 is listed as >31000.

Regarding `C[N+]1(CCCOc2ccc3nccc(C(=O)NCC(=O)N4CC(F)(F)C[C@H]4C#N)c3c2)CCN(C(=O)c2ccc(I)cc2)CC1` [Compound 13, (S)-1-(3-((4-((2-(2-cyano-4,4-difluoropyrrolidin-1-yl)-2-oxoethyl)carbamoyl)quinolin-6-yl)oxy)propyl)-4-(4-iodobenzoyl)-1-methylpiperazin-1-ium hexafluorophosphate(V)], on DPP4, the IC50 is > 10 µM and the “Selectivity index DPP4” value is on record as >22000. In addition, on Human recombinant PREP, the “Selectivity index PREP” value is reported as >22000 and the 50% inhibitory concentration (IC50) is > 10 µM. Further, on human DPP8, the IC50 was > 1 µM and the “Selectivity index DPP8” value is recorded as >2200. For the same compound, on human DPP9, the IC50 was found to be 0.67 ± 0.03 µM and the “Selectivity index DPP9” value is >2200. At human FAP, this compound displayed an IC50 of 0.00044 ± 0.0001 µM.

These data come from US20250339566A1, “INHIBITORS OF FIBROBLAST ACTIVATION PROTEIN” (UNIVERSITEIT ANTWERPEN, priority 2022, published 2025).
